Marks after values point to notes of the source that are not given here.
Columns and labels:
STAM (model) mice [1] = assay: Fibrosis area by Sirius Red staining, STAM model; format: in vivo, mouse; details: Sirius Red positive area, 6 weeks treatment, Compound A 37 mg/kg/day oral gavage
Text: (§1) In Biological Example 8, pathogen-free 15-day-pregnant C57BL/6 mice were obtained from Charles River Laboratories in Japan Inc. (Kanagawa, Japan). NASH was established in male mice by a single subcutaneous injection of streptozotocin (STZ) (Sigma, USA) after birth and feeding with a high fat diet (HFD; CLEA) Japan, Japan) ad libitum after 4 weeks of age (day 28±2). Mice were randomised into 3 groups of 8 mice at 6 weeks of age the day before the start of treatment: vehicle (saline), Compound A and telmisartan (positive control). Treatment with Compound A at a dose of 37 mg/kg bw per day via oral gavage in conjunction with a high-fat diet was given for 6 weeks before sacrifice. NAFLD activity score (NAS) was calculated according to standardised criteria and fibrosis area was assessed via Sirius Red staining.

STAM (model) mice [2] = assay: NAFLD activity score (NAS) in streptozotocin/high-fat diet NASH model (STAM model); format: in vivo, mouse; details: 6 weeks treatment, Compound A 37 mg/kg/day oral gavage, telmisartan positive control
Text: as §1

galectin-3 (Gal-3) = assay: Hepatic galectin-3 (Gal-3) levels by IHC in ob/ob AMLN mice; format: in vivo, mouse; details: 8 weeks, Compound A 45, 90, 135 mg/kg
Description: (§2) Obese diet-induced B6.V-Lepob/Jrj mice (ob/ob) are consistently fibrosis (liver) prone when cholesterol (2%), 40% fat (containing 18% trans-fatty acids) and 20% fructose are added to a high-caloric diet (i.e., AMLN high-fat diet). ob/ob mice on AMLN diet (termed ‘ob/ob AMLN mice’) develop steatohepatitis and fibrosis within a shorter timeframe ([…]) compared with wild-type C57BL/6 mice (AMLN mice) fed the same diet. ob/ob AMLN mice provide an obese diet-induced model of NASH that also allows the study of effects on glycemic control. Development of NASH in the ob/ob AMLN model is confirmed by biopsy.
(§3) In Biological Examples 10, 13-14, and 16-18, studies were performed in male ob/ob mice (5 weeks old) fed an AMLN high-fat diet for 18 weeks, then randomized into 6 groups (n=10 per group) to receive either Compound A (at 3 different daily doses, 45 mg/kg, 90 mg/kg or 135 mg/kg) via diet, 30 mg/kg bw per day obeticholic acid (OCA) via diet, or no treatment (vehicle) for a further 8 weeks. Assessment of NASH related parameters and fibrosis was made at study end by quantitative immune histochemistry (IHC) measurements.
To assess the effects of 8 weeks treatment with either Compound A (45 mg/kg, 90 mg/kg, or 135 mg/kg) or OCA (30 mg/kg) on hepatic inflammation in ob/ob AMLN mice, IHC was performed to assess galectin-3 (Gal-3) levels.

TNF-α mRNA = assay: Hepatic TNF-α mRNA expression by qPCR, CDAA/high-fat diet mouse model; format: in vivo; details: CDAA/high-fat fed mice
Text: Mice were fed either choline-sufficient (CS) or choline deficient high-fat diets (31% total calories; “CDAA/high-fat”). The NASH inducing diet was instigated 6 weeks prior to the commencement of treatment in order to design the study as a treatment/reversal set-up rather than prophylaxis.
(§4) After 6 weeks of either the CS- or CDAA diet, mice were orally administered Compound A or comparison Compound N, both at 2 doses, 0.15 mmol/kg bw/day (low-dose, LD) and 0.3 mmol/kg bw per day (high-dose, HD). The test substances were administered orally as admix to the high-fat diet. Hepatic fibrosis was assessed by both measurement of hydroxyproline (HYP) content and Sirius Red (SR) morphometry. Fibrosis, inflammation and metabolism related transcripts levels were measured by quantitative real-time polymerase chain reaction (qPCR).
Studies were performed in male C56BL/6J mice (9 weeks old). Mice were divided into 6 experimental groups (n=9 per group) containing either CS or CDAA/high-fat diets, as described above. The NASH inducing CDAA/high fat diet was instigated 6 weeks prior to the commencement of treatment in order to assess treatment/reversal rather than prophylaxis. […] Compound A was administered orally as admix to the high-fat diet whilst GLP-1 agonist was delivered via intraperitoneal injection (i.p.). Fibrosis, inflammation and metabolism related transcripts levels were measured by quantitative real-time polymerase chain reaction (qPCR) in isolated liver tissue.

[3] = tested on: α-smooth muscle actin (SMA); assay: Hepatic α-SMA content by quantitative IHC in ob/ob AMLN mice; format: in vivo, mouse; details: 8 weeks; for α-SMA (total and % of fractional area content): vs vehicle
Description: as §2, §3

CDAA/high-fat fed mice = assay: Hepatic hydroxyproline (HYP) content, CDAA/high-fat diet induced NASH mouse model; format: in vivo
Text: Mouse models that are deficient in methionine and/choline (MCD and CDAA respectively) are well established for studying the development and treatment of NASH in pre-clinical drug development. As precursors for the synthesis of phosphatidylcholine, a dietary deficiency of methionine/choline leads to an inability to synthesize hepatic lipoproteins for the export of triglyceride that results in severe hepatic steatosis, inflammation and fibrosis.
Although the widely used methionine-choline deficient (MCD) diet consistently reproduces severe NASH-like hepatic inflammation and fibrosis in mice, it is also associated with severe weight-loss (loss of both skeletal muscle and fat mass). This is associated with an increased risk of death which presents major problems for long-term fibrogenesis experiments.
In Biological Examples 1-7, studies were performed in male C56BL/6J mice (9 weeks old). Mice were fed either choline-sufficient (CS) or choline deficient high-fat diets (31% total calories; “CDAA/high-fat”). The NASH inducing diet was instigated 6 weeks prior to the commencement of treatment in order to design the study as a treatment/reversal set-up rather than prophylaxis.
as §4, with “In Biological Examples 1-5, mice were divided into 6 experimental groups (n=9 per group) and fed either CS or CDAA/high-fat diets. After” for “After”

col1A1 = assay: Hepatic col1A1 content by quantitative IHC in ob/ob AMLN mice; format: in vivo, mouse; details: 8 weeks
Description: as §2, §3

CC/C=C\C/C=C\C/C=C\C/C=C\C/C=C\CCCCOC(CC)C(=O)O (stereo not drawn) [Compound A, 2-((5Z,8Z,11Z,14Z,17Z)-icosa-5,8,11,14,17-pentaenyloxy)butanoic acid]
Fibrosis area (%) (STAM (model) mice [1]): 0.79% | Hepatocellular ballooning (STAM (model) mice [2]): 1 | Lobular inflammation (STAM (model) mice [2]): 0.88 | NAS score (mean ± SD) (STAM (model) mice [2]): 2.3 ± 1.5 | Steatosis (STAM (model) mice [2]): 0.12 | Gal-3 expression level, percentage of area (galectin-3 (Gal-3)): dose responsive reduction | Gal-3 expression level, total content (galectin-3 (Gal-3); OCA 30 mg/kg): dose responsive reduction | TNF-α (relative mRNA expression) (TNF-α mRNA; Compound A 0.3 mmol/kg bw/day oral, GLP-1a 0.4 mg/kg once weekly i.p., alone or combined): 0.65*** | TNF-a (relative mRNA expression) (TNF-α mRNA; HD 0.3 mmol/kg bw per day): 0.65*** | TNF-a (relative mRNA expression) (TNF-α mRNA; LD 0.15 mmol/kg bw/day): 0.75*** | area percentage of α-SMA content compared to pre-treatment biopsy ([3]; Compound A 45 mg/kg): non-significant trend | area percentage of α-SMA content compared to pre-treatment biopsy ([3]; Compound A 90 mg/kg): non-significant trend | α-SMA (total and % of fractional area content) ([3]; Compound A 90 mg/kg): markedly reduced | area percentage of α-SMA content compared to pre-treatment biopsy ([3]; Compound A 135 mg/kg): decreased | α-SMA (total and % of fractional area content) ([3]; Compound A 135 mg/kg): markedly reduced | Hydroxyproline (μg) content per 100 mg liver (CDAA/high-fat fed mice; HD 0.3 mmol/kg bw per day orally as admix to diet): 37 μg HYP/per 100 mg liver | Hydroxyproline (μg) content per 100 mg liver (CDAA/high-fat fed mice; LD 0.15 mmol/kg bw/day orally as admix to diet): 38 μg HYP/per 100 mg liver | Hydroxyproline (μg) content per liver (CDAA/high-fat fed mice; high dose (HD) 0.3 mmol/kg bw per day orally as admix to diet): 750** μg | Hydroxyproline (μg) content per liver (CDAA/high-fat fed mice; low dose (LD) 0.15 mmol/kg bw/day orally as admix to diet): 800* μg | col1A1 content compared with pre-biopsy content (col1A1; Compound A 45 mg/kg): trend towards decreased col1A1 content | col1A1 levels as a percentage of total surface area (col1A1; Compound A 45 mg/kg): not statistically significant | col1A1 levels as a percentage of total surface area (col1A1; Compound A 90 mg/kg): significant reduction | total col1A1 content (col1A1; Compound A 90 mg/kg): reduced | col1A1 content compared with pre-biopsy content (col1A1; Compound A 90 mg/kg, decrease, p<0.005): statistically significant | col1A1 content compared with pre-biopsy content (col1A1; Compound A 135 mg/kg): trend towards decreased col1A1 content | col1A1 levels as a percentage of total surface area (col1A1; Compound A 135 mg/kg): not statistically significant | total col1A1 content (col1A1; Compound A 135 mg/kg): reduced

— patent US12440466B2, “Fatty acid derivatives for treating non-alcoholic steatohepatitis” (BASF AS, priority 2017, dated 2025)
